Assay results published in patent US20240287076A1, “COMPOUNDS FOR TARGETING DEGRADATION OF BRUTON'S TYROSINE KINASE” (BIOGEN MA INC., priority 2021, published 2024).

Molecular target: T1, BTK (Homo sapiens, UniProt Q06187)
T1 construct: The GM01501.3 cell line endogenously expresses BTK with a HiBiT fusion tag via CRISPR knock-in at its C-terminal region; endogenous in cells; host or cells: GM01501.3 (GM01501 cells engineered by CRISPR knock-in of HiBiT at the BTK locus)
Experiment: BTK degradation assay using the HiBiT Method (Nano-Glo HiBiT Lytic Assay, GM01501.3 cells)
Type: cell-based
Conditions: HiBiT Degradation on GM01501.3 BTK @ 6 hours
Experimental: Selected compounds were tested in a BTK degradation assay using the HiBiT Method. Park Memorial Institute (RPM1) 1640 Medium with phenol red, L-Glutamine, Sodium Pyruvate, and fetal bovine serum (FBS) were purchased from Gibco (Grand Island, NY, USA). Nano-Glo® HiBiT Lytic Assay System was purchased from Promega (Madison, WI, USA). GM01501 cells were obtained from the NIGMS Human Genetic Cell Repository at the Coriell Institute for Medical Research. The GM01501.3 cell line endogenously expresses BTK with a HiBiT fusion tag via CRISPR knock-in at its C-terminal region. It was engineered by electroporation with the Neon Transfection System (Themo Fisher Scientific), according to manufacturer indications. Electroporation conditions: 1 pulse of 1,350 V for 30 ms for 0.5×10_6 cells. Cell culture flasks and 384-well microplates were acquired from VWR (Radnor, PA, USA). BTK degradation was evaluated by quantification of luminescent signal using Nano-Glo® HiBiT Lytic Assay kit. Test compounds were added to the 384-well plate from a top concentration of 10 μM with 11 points, half log titration in duplicates. GM01501.3 cells were added into 384-well plates at a cell density of 10,000 cells per well in a total volume of 30 μl. The plates were kept at 37° C. with 5% CO2 for 6 hours. Negative control wells included cells treated with DMSO only and positive control wells included only growing media, without Nano-Glo® HiBiT Lytic reagent. After a 6-hour incubation, Nano-Glo® HiBiT Lytic Assay reagent was added to the cells following manufacturer indications. Luminescence was acquired on EnVision™ Multilabel Reader (PerkinElmer, Santa Clara, CA, USA). […] “++++” represents a DC50 value of less than 100 nM. “+++” represents a DC50 value of 100 nM-500 nM. “++” represents a DC50 value of 500 nM-1000 nM. “+” represents a DC50 value of greater than 1000 nM.

T1 sequence (Q06187 whole entry, the tested form may be a part): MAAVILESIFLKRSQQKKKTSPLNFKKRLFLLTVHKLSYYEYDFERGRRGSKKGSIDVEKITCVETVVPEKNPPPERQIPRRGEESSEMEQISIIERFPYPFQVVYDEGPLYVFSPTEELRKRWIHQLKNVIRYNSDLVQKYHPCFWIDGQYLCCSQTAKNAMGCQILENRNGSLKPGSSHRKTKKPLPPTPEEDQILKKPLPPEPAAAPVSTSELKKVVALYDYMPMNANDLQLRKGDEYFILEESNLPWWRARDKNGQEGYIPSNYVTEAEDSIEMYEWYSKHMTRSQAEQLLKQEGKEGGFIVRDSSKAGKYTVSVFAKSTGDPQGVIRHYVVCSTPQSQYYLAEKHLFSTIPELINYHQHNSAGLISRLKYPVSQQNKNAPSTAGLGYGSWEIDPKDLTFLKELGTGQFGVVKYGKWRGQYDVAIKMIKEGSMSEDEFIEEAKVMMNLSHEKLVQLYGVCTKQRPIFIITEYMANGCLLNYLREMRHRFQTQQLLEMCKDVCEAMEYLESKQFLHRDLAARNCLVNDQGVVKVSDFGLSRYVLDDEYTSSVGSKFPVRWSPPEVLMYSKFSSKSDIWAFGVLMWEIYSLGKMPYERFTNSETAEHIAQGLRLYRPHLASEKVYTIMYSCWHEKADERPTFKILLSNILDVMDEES

DC50, < 100 nM:
Cc1cc(-c2ncnn3cc(-c4ccc(CN5CCC(c6cnc(NC7CCC(=O)NC7=O)cn6)CC5)cc4)cc23)ccc1CNC(=O)c1noc(C(C)(C)C)n1 (centres unmarked) [Example 12, 5-tert-butyl-N-[[4-[6-[4-[[4-[5-[(2,6-dioxo-3-piperidyl)amino]pyrazin-2-yl]-1-piperidyl]methyl]phenyl]pyrrolo[2,1-f][1,2,4]triazin-4-yl]-2-methyl-phenyl]methyl]-1,2,4-oxadiazole-3-carboxamide]
Cc1cc(-c2ncnn3cc(-c4ccc(CN5CCC(c6ccc(NC7CCC(=O)NC7=O)nc6)CC5)cc4)cc23)ccc1CNC(=O)c1noc(C(C)(C)C)n1 (centres unmarked) [Example 13, 5-tert-butyl-N-[[4-[6-[4-[[4-[6-[(2,6-dioxo-3-piperidyl)amino]-3-pyridyl]-1-piperidyl]methyl]phenyl]pyrrolo[2,1-f][1,2,4]triazin-4-yl]-2-methyl-phenyl]methyl]-1,2,4-oxadiazole-3-carboxamide]
Cc1cc(-c2ncnn3cc(-c4ccc(CN5CCC(c6ncc(NC7CCC(=O)NC7=O)cn6)CC5)cc4)cc23)ccc1CNC(=O)c1noc(C(C)(C)C)n1 (centres unmarked) [Example 14, 5-tert-butyl-N-[[4-[6-[4-[[4-[5-[(2,6-dioxo-3-piperidyl)amino]pyrimidin-2-yl]-1-piperidyl]methyl]phenyl]pyrrolo [2,1-f][1,2,4]triazin-4-yl]-2-methyl-phenyl]methyl]-1,2,4-oxadiazole-3-carboxamide]
Cc1cc(-c2ncnn3cc(-c4ccc(CN5CCC(c6ccc(NC7CCC(=O)NC7=O)cc6)CC5)c(Cl)c4)cc23)ccc1CNC(=O)c1noc(C(C)(C)C)n1 (centres unmarked) [Example 15, 5-tert-butyl-N-[[4-[6-[3-chloro-4-[[4-[4-[(2,6-dioxo-3-piperidyl)amino]phenyl]-1-piperidyl]methyl]phenyl]pyrrolo[2,1-f][1,2,4]triazin-4-yl]-2-methyl-phenyl]methyl]-1,2,4-oxadiazole-3-carboxamide]
COc1cc(-c2cc3c(-c4ccc(CNC(=O)c5noc(C(C)(C)C)n5)c(C)c4)ncnn3c2)ccc1CN1CCC(c2ccc(NC3CCC(=O)NC3=O)cc2)CC1 (centres unmarked) [Example 16, 5-tert-butyl-N-[[4-[6-[4-[[4-[4-[(2,6-dioxo-3-piperidyl)amino]phenyl]-1-piperidyl]methyl]-3-methoxy-phenyl]pyrrolo[2,1-f][1,2,4]triazin-4-yl]-2-methyl-phenyl]methyl]-1,2,4-oxadiazole-3-carboxamide]
Cc1cc(-c2ncnn3cc(-c4ccc(CN5CCC(c6ccc(NC7CCC(=O)NC7=O)cc6)CC5)cc4C)cc23)ccc1CNC(=O)c1noc(C(C)(C)C)n1 (centres unmarked) [Example 17, 5-tert-butyl-N-[[4-[6-[4-[[4-[4-[(2,6-dioxo-3-piperidyl)amino]phenyl]-1-piperidyl]methyl]-2-methyl-phenyl]pyrrolo[2,1-f][1,2,4]triazin-4-yl]-2-methyl-phenyl]methyl]-1,2,4-oxadiazole-3-carboxamide]
Cc1cc(-c2ncnn3cc(-c4ccc(CN5CCC(c6ccc(NC7CCC(=O)NC7=O)c(F)c6)CC5)cc4)cc23)ccc1CNC(=O)c1noc(C(C)(C)C)n1 (centres unmarked) [Example 18, 5-tert-butyl-N-[[4-[6-[4-[[4-[4-[(2,6-dioxo-3-piperidyl)amino]-3-fluoro-phenyl]-1-piperidyl]methyl]phenyl]pyrrolo [2,1-f][1,2,4]triazin-4-yl]-2-methyl-phenyl]methyl]-1,2,4-oxadiazole-3-carboxamide]
Cc1cc(-c2ncnn3cc(-c4ccc(CN5CCC(c6ccc(OC7CCC(=O)NC7=O)cc6)CC5)cc4)cc23)ccc1CNC(=O)c1noc(C(C)(C)C)n1 (centres unmarked) [Example 19, 5-tert-butyl-N-[[4-[6-[4-[[4-[4-[(2,6-dioxo-3-piperidyl)oxy]phenyl]-1-piperidyl]methyl]phenyl]pyrrolo[2,1-f][1,2,4]triazin-4-yl]-2-methyl-phenyl]methyl]-1,2,4-oxadiazole-3-carboxamide]
